Assay [1] deals with Mitogen-activated protein kinase 1 (Homo sapiens, UniProt P28482).
Description: Inhibition of ERK2 after 10 mins by spectrophotometric coupled-enzyme assay
In another assay the target is T1, Aurora kinase A (Homo sapiens, UniProt O14965).
T1 sequence (O14965 whole entry): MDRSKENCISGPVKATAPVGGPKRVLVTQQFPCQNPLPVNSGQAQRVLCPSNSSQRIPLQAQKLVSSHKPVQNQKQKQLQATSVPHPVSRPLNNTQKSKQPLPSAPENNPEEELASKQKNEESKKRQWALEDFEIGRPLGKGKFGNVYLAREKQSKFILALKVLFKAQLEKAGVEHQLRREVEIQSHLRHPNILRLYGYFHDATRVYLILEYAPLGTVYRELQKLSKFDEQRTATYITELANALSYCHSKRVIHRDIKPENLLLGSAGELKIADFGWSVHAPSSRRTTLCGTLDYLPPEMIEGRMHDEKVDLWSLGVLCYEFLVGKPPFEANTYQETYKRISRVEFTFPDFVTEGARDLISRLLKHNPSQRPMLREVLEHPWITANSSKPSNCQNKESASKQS
Nature of the assay: Inhibition of AURA.

Assay [2] in a line: Inhibition of GSK3.
The target in assay [3] is Cyclin-dependent kinase 2 (Homo sapiens, UniProt P24941).
Another assay concerns HT-29. The assay can be described thus: Antiproliferative activity against human HT-29 cells. The format is functional, cell-based.

Some results are limits rather than exact numbers.

By Ki is commonly meant a dissociation constant, usually derived from enzyme kinetics or from competition with a known ligand. A higher Ki goes with lower affinity. As usually defined, the IC50 is the concentration at which inhibition is half-maximal.

Sequence of Mitogen-activated protein kinase 1 (P28482 whole entry): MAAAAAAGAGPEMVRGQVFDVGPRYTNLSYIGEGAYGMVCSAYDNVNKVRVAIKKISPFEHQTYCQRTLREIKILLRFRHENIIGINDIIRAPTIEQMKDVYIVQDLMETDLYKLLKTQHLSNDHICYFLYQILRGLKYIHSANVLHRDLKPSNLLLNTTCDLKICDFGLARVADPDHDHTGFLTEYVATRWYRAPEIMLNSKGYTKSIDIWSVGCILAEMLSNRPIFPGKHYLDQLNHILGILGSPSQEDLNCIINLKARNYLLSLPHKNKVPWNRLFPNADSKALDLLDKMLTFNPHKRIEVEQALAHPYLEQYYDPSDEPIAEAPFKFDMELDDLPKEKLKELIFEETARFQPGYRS

Regarding `Cc1cnc(Nc2ccccc2Cl)nc1-c1c[nH]c(C(=O)N[C@H](CO)c2ccccc2)c1`, the Ki in assay [1] is < 2 nM; at Aurora kinase A, 1550 nM; in assay [2], 190 nM; in assay [3] it was 240 nM.
With `Cc1cccc([C@@H](CO)NC(=O)c2cc(-c3nc(Nc4ccccc4)ncc3C)c[nH]2)c1`, the Ki in assay [1] was < 2 nM; at Aurora kinase A, 45 nM; in assay [2], 26 nM; in assay [3], 69 nM. Also, the IC50 with HT-29 stood at 40 nM.
For `Cc1cnc(Nc2cccc3c2OCCO3)nc1-c1c[nH]c(C(=O)N[C@H](CO)c2cccc(Cl)c2)c1`, in that order: 15 nM, 11 nM, 45 nM, 138 nM and 58 nM.
For the compound `Cc1cnc(Nc2ccc(Cl)cc2F)nc1-c1c[nH]c(C(=O)N[C@H](CO)c2cccc(Cl)c2)c1`, the Ki in assay [1] amounted to 5 nM; on Aurora kinase A, 540 nM; in assay [2], 450 nM; in assay [3], 316 nM. Also, in the assay with HT-29, half-maximal inhibition (IC50) was put at 97 nM.
In the case of `Cc1cnc(Nc2ccccc2)nc1-c1c[nH]c(C(=O)N[C@H](CO)c2ccccc2)c1`, the Ki in assay [1] was < 2 nM; at Aurora kinase A, 15 nM. In the assay with HT-29, this compound returned an IC50 of 29 nM.
For `Cc1cnc(Nc2ccccc2C(F)(F)F)nc1-c1c[nH]c(C(=O)N[C@H](CO)c2ccccc2)c1`, the Ki on Aurora kinase A is > 800 nM; in assay [3], > 4000 nM. This compound also returned an IC50 in the assay on HT-29 of 6300 nM.
As for `Cc1cnc(Nc2cccc3c2OCO3)nc1-c1c[nH]c(C(=O)N[C@H](CO)c2cccc(Cl)c2)c1`, the Ki was < 2 nM in assay [1], 15 nM on Aurora kinase A, 33 nM in assay [2] and 209 nM in assay [3]. Besides, the IC50 in the assay on HT-29 stood at 58 nM.
With `Cc1cnc(Nc2cccc(F)c2C)nc1-c1c[nH]c(C(=O)N[C@H](CO)c2cccc(Cl)c2)c1`, the Ki in assay [1] was found to be 34 nM; on Aurora kinase A it was 410 nM; in assay [2] it was 1260 nM; in assay [3] it was 150 nM. Moreover, the IC50 with HT-29 amounted to 56 nM.
For `Cc1cc(Cl)ccc1Nc1ncc(C)c(-c2c[nH]c(C(=O)N[C@H](CO)c3cccc(Cl)c3)c2)n1`, in that order: 5 nM, 410 nM, 1100 nM, 76 nM and 98 nM.
For the compound `Cc1cnc(Nc2ccccc2)nc1-c1c[nH]c(C(=O)N[C@@H](CO)c2ccccc2)c1`, the Ki in assay [1] is 670 nM; at Aurora kinase A, 270 nM.
Take `Cc1ccccc1Nc1ncc(C)c(-c2c[nH]c(C(=O)N[C@H](CO)c3cccc(Cl)c3)c2)n1`: the Ki was 400 nM at Aurora kinase A and < 2 nM in assay [2].
Consider `CCc1ccccc1Nc1ncc(C)c(-c2c[nH]c(C(=O)N[C@H](CO)c3cccc(Cl)c3)c2)n1`, for which the Ki in assay [1] is < 2 nM; at Aurora kinase A, 720 nM; in assay [2], 150 nM; in assay [3] it was 450 nM. In the assay on HT-29, this compound displayed an IC50 of 39 nM.
Regarding `Cc1cnc(Nc2ccccc2O)nc1-c1c[nH]c(C(=O)N[C@H](CO)c2ccccc2)c1`, the Ki in assay [1] is 4 nM; on Aurora kinase A it was 99 nM; in assay [2] it was < 2 nM; in assay [3] it was < 100 nM. For the same compound, the IC50 in the assay on HT-29 is 3000 nM.
Compound `Cc1ccccc1Nc1ncc(C)c(-c2c[nH]c(C(=O)N[C@H](CO)c3ccccc3)c2)n1` showed a Ki at Aurora kinase A of 860 nM. That is a sub-micromolar value.
As to `Cc1cnc(Nc2ccccc2F)nc1-c1c[nH]c(C(=O)N[C@H](CO)c2ccccc2)c1`, the Ki was < 2 nM in assay [1], 160 nM on Aurora kinase A, 45 nM in assay [2] and 57 nM in assay [3]. For the same compound, the IC50 in the assay with HT-29 was 26 nM.
On to `CCc1ccccc1Nc1ncc(C)c(-c2c[nH]c(C(=O)N[C@H](CO)c3ccccc3)c2)n1`, for which the Ki was determined as 3 nM in assay [1], 1430 nM on Aurora kinase A, 760 nM in assay [2] and 210 nM in assay [3]. In addition, in the assay with HT-29, the 50% inhibitory concentration (IC50) is 66 nM.
For `Cc1cnc(Nc2ccccc2)nc1-c1c[nH]c(C(=O)N[C@H](CO)c2cccc(Cl)c2)c1`, in that order: < 2 nM, 19 nM, 140 nM, 290 nM and 100 nM.
`Cc1cnc(Nc2cccc3c2CCC3)nc1-c1c[nH]c(C(=O)N[C@H](CO)c2cccc(Cl)c2)c1`: the Ki in assay [1] is < 2 nM; on Aurora kinase A, 550 nM; in assay [2], 350 nM; in assay [3], 642 nM. In the assay with HT-29, this compound gave an IC50 of 250 nM.
`Cc1cnc(Nc2cccc3c2CCCC3)nc1-c1c[nH]c(C(=O)N[C@H](CO)c2cccc(Cl)c2)c1`: the Ki in assay [1] came to 13 nM; at Aurora kinase A, 280 nM; in assay [2] it was 667 nM; in assay [3], 250 nM. Moreover, inhibition in the assay on HT-29 was half-maximal at 420 nM (IC50).
Turning to `Cc1cnc(Nc2cccc3c2OC(F)(F)O3)nc1-c1c[nH]c(C(=O)N[C@H](CO)c2cccc(Cl)c2)c1`, the Ki in assay [1] was < 2 nM; on Aurora kinase A, > 800 nM; in assay [2] it was 310 nM; in assay [3], 170 nM. Half-maximal inhibition in the assay on HT-29 (IC50) required 280 nM.
Consider `Cc1cnc(Nc2cccc(C)c2C)nc1-c1c[nH]c(C(=O)N[C@H](CO)c2cccc(Cl)c2)c1`, for which the Ki in assay [1] is < 2 nM; at Aurora kinase A it was 440 nM; in assay [2], 110 nM; in assay [3] it was 41 nM.
Consider `COc1cccc(Nc2ncc(C)c(-c3c[nH]c(C(=O)N[C@H](CO)c4cccc(Cl)c4)c3)n2)c1OC`, for which the Ki was 3 nM in assay [1], > 200 nM on Aurora kinase A, > 2500 nM in assay [2] and > 2500 nM in assay [3]. For the same compound, the IC50 with HT-29 was 230 nM.
